Experimental data published in PMC7356390, “Dehydrozingerone, a Curcumin Analog, as a Potential Anti-Prostate Cancer Inhibitor In Vitro and In Vivo” (Molecules, 2020).
Read-outs that look alike come from different tables or passages of the source.

Key:
[1] = system: cyclin D1 expression in PLS10 cells; assay: Western blot analysis of cyclin D1 expression; type: cell-based, rat; settings: 48 h, p < 0.01 vs control
Procedure: Cells were treated with Cur (0–20 μM) and DZG (0–200 μM) for 48 h. Cells were harvested for analysis of the cell cycle distribution by the Guava cycle (a,b), while cyclin D1 expression was determined by Western blot analysis (c,d). The level of protein expression was quantified by IMAGE J software. Data are presented as mean ± S.D. of three independent experiments. * p < 0.05 and ** p < 0.01 vs. control (one-way ANOVA, Dunnett’s multiple comparisons test, tested groups vs. control group). […]
Protein concentration was determined using the Bradford method (Thermo Fisher Scientific, Waltham, MA, USA). […]

[2] = In vivo pharmacokinetics and tissue distribution (HPLC); design: species or system male BALB/c mice; settings: for concentration at 30 min: 30 min after 100 mg/kg i.p.; for concentration at 60 min: 60 min after 100 mg/kg i.p.; for Tmax: serum, ip, read-out: time to maximum serum concentration after i.p. administration
Procedure: Figure 5 Levels of serum Cur and DZG recorded in mice after receiving a single dose of Cur or DZG (100 mg/kg body weight) by intraperitoneal (i.p.) injection. Serum concentrations of Cur and DZG were determined by high-performance liquid chromatography (HPLC) using a reversed-phase C18 column (Waters). The mobile phase values were 52% acetonitrile and 48% citric buffer. Each point represents the mean ± S.E. of three or four mice.
A comparison of the pharmacokinetics between Cur and DZG was determined using seven-week-old male BALB/c mice. The designated 32 mice were randomly divided into 3 groups, identified as the control, Cur and DZG groups. Mice were i.p. injected with 50% DMSO in NSS (vehicle control), Cur or DZG at concentrations of 100 mg/kg of body weight for each mouse. The mice were euthanized, and blood from each mouse was collected at 0, 30, 60 and 180 min after injection. Lungs, liver and kidneys were removed and frozen for detection of the levels of concentrations of Cur and DZG.
The concentrations of Cur or DZG in the serum or organ tissues were determined using the HPLC method. The tissues were homogenized in 200 μl of 50% acetonitrile and vortexed for 5 min. Samples were centrifuged at 96.5 g at 4°C for 20 min. Fifty microliters of serum or tissue homogenate was mixed with 1.5-mg/mL trichloroacetic acid in 100 µl of acetonitrile. The substance was then centrifuged at 96.5 g at 4°C for 20 min. Sixty microliters of the supernatant was collected and subjected to HPLC using a reversed-phase C18 column (Waters Corporation, Milford, MA, USA). The mobile phase was composed of 52% acetonitrile and 48% citric buffer (1% w/v citric acid, pH 3.0), and the flow rate was set at 1 mL/min. The detection wavelength for Cur and DZG were 425 and 340 nm, respectively. Concentrations of Cur and DZG in the serum were calculated and compared to the standard curve (0–3200 ng/mL). The limits of quantification for Cur and DZG were 100 and 50 ng/mL, respectively. The extraction recovery from the plasma was approximately 90% for both Cur and DZG.

[3] = male, BALB/c, mouse, kidney, intraperitoneal, 100 mg/kg body weight, mean ± S.E., read-out: tissue concentration, Kidneys
[4] = male, BALB/c, mouse, liver, intraperitoneal, 100 mg/kg body weight, mean ± S.E., read-out: tissue concentration, Liver
[5] = male, BALB/c, mouse, lung, intraperitoneal, 100 mg/kg body weight, mean ± S.E., read-out: tissue concentration, Lung
[6] = male, BALB/c, mouse, single dose 100 mg/kg i.p., mice
[7] = single dose 100 mg/kg i.p., mice

| Structure (SMILES) | cyclin D1 expression ([1]; 15 and 20 µM) | concentration at 30 min [2, 3] | concentration at 60 min [2, 3] | concentration at 30 min [2, 4] | concentration at 30 min [2, 5] | Tmax [2, 6] | maximum serum concentration [2, 7] | time at detectable concentrations in the serum after i.p. injection [2, 7] | cyclin D1 expression ([1]; 150 and 200 µM) | concentration at 180 min ([2]; male, BALB/c, mouse, kidney, intraperitoneal, 100 mg/kg body weight, 180 min after 100 mg/kg i.p., mean ± S.E., read-out: tissue concentration, Kidneys) | concentration at 60 min [2, 4] | concentration at 60 min [2, 5] | time of highest concentration in the kidneys after injection [2, 7] |
| --- | --- | --- | --- | --- | --- | --- | --- | --- | --- | --- | --- | --- | --- |
| COc1cc(/C=C/C(=O)CC(=O)/C=C/c2ccc(O)c(OC)c2)ccc1O [Cur, Curcumin] | decreased | 1010 ± 550 ng/g | 530 ± 190 ng/g | 2600 ± 780 ng/g | 1150 ± 1300 ng/g | ≤ 30 min | 2.28 ± 2.42 µg/mL | ≤ 1 h |  |  |  |  |  |
| COc1cc(/C=C/C(C)=O)ccc1O [DZG, (E)-4-(4-hydroxy-3-methoxyphenyl)-but-3-en-2-one] |  | 5920 ± 3800 ng/g | 9750 ± 4080 ng/g | 920 ± 670 ng/g | 1410 ± 740 ng/g | ≤ 30 min | 4.87 ± 2.74 µg/mL | up to 3 h | decreased | 860 ± 220 ng/g | 410 ± 110 ng/g | 720 ± 280 ng/g | 1 h |
